pIC50: −log10 of the molar value. Where two headings read alike, the source gives them in different places. *1 amine or outer side, *2 acyl side, *3 side chain or, on linkers, in order; H or OH if unused. Where a SMILES comes first, the peptide text is derived from it. Bridges are numbered along the chain shown (N, C = ends). [ ]: non-standard residue; d: D form. The star is where a group is joined. hPhe(3,5-F2-4-CF3) = N[C@@H](CCc1cc(F)c(C(F)(F)F)c(F)c1)C(=O)O; hPhe(3-Cl-4-CF3) = N[C@@H](CCc1ccc(C(F)(F)F)c(Cl)c1)C(=O)O; NPrPhe(4-CF3) = CCCN[C@@H](Cc1ccc(C(F)(F)F)cc1)C(=O)O; Pro(4-spirocPr) = O=C(O)[C@@H]1CC2(CC2)CN1; X33 = C[C@@H]1CN([*:1])[C@@H]1C(=O)[*:2]; NMeGly(cPent) = CN[C@H](C(=O)O)C1CCCC1; Pro(4,4-F2) = O=C(O)[C@@H]1CC(F)(F)CN1; X11 = CCC[C@](C)(N[*:1])C(=O)[*:2]; NMeD = CN[C@@H](CC(=O)O)C(=O)O; NMeL = CN[C@@H](CC(C)C)C(=O)O; αMeV = CC(C)[C@](C)(N)C(=O)O; Morpholide = C1CN(*)CCO1; Ac5c = NC1(C(=O)O)CCCC1; Aze = O=C(O)[C@@H]1CCN1; Ac4c = NC1(C(=O)O)CCC1; Sar = CNCC(=O)O
Assays:
[1] = biological target: GDP-bound NRAS wild-type protein (Homo sapiens, UniProt P01111); assay: Binding to NRAS by surface plasmon resonance (SPR), Single Cycle Kinetics; details: for NRAS/KRAS (ratio of KD value for NRAS to KD value for KRAS) / NRAS/KRAS (ratio of KD value with respect to NRAS to KD value with respect to KRAS): GDP-bound NRAS wild-type protein vs GDP-bound KRAS wild-type protein
GDP-bound NRAS wild-type protein, sequence (P01111 whole entry): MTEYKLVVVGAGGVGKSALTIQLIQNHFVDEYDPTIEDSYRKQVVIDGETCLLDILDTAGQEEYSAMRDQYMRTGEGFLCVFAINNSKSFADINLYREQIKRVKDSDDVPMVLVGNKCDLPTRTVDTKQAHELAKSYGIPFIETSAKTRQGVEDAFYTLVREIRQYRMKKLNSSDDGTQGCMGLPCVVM

[2] = biological target: GDP-bound HRAS wild-type protein (Homo sapiens, UniProt P01112); assay: Binding to HRAS by surface plasmon resonance (SPR), Single Cycle Kinetics; details: for HRAS/KRAS (ratio of KD value for HRAS to KD value for KRAS) / HRAS/KRAS (ratio of KD value with respect to HRAS to KD value with respect to KRAS): GDP-bound HRAS wild-type protein vs GDP-bound KRAS wild-type protein
GDP-bound HRAS wild-type protein, sequence (P01112 whole entry): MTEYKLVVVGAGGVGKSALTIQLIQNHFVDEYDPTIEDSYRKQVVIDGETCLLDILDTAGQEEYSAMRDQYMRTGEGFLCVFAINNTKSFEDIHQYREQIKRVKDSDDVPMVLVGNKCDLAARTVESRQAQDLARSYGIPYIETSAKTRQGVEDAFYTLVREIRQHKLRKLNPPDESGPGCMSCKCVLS

[3] = system: human lung cancer strain NCI-H441;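 note: cell proliferation inhibition after four days measured by CellTiter-Glo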

Row | SMILES | NRAS/KRAS (ratio of KD value for NRAS to KD value for KRAS) ([1]; SPR) | HRAS/KRAS (ratio of KD value for HRAS to KD value for KRAS) ([2]; SPR) | pIC50 [3] | other results
1 | CCO[C@@H]1C[C@H]2C(=O)NC3(CCC3)C(=O)N(C)[C@@H](C3CCCC3)C(=O)N(C)[C@H](C(=O)N(C)C)CC(=O)N(C)[C@@H](CC)C(=O)N[C@@H]([C@@H](C)CC)C(=O)N(C)CC(=O)N(C)[C@H]3CCCCCN(C3=O)[C@@H](Cc3ccc(F)cc3Cl)C(=O)N(C)CC(=O)N[C@@H](CCc3cc(F)c(C(F)(F)F)c(F)c3)C(=O)N2C1 [PP0908] | B (a compound having 3 or more and less than 10 is denoted as B) | B (a compound having 3 or more and less than 10 is denoted as B) | 7.41 | 
2 | CC[C@H](C)[C@@H]1NC(=O)[C@@H]2CCCc3ccc(cc3)C[C@@H](C(=O)N(C)CC(=O)N[C@@H](CCc3ccc(C(F)(F)F)c(OC)c3)C(=O)N3C[C@H](OC(C)C)C[C@H]3C(=O)NC3(CC(C)(C)C3)C(=O)N(C)[C@@H](C3CCCC3)C(=O)N(C)[C@H](C(=O)N(C)CC)CC(=O)N2C)N2CC/C=C\C[C@@H](C2=O)N(C)C(=O)CN(C)C1=O [PP3084] | A (a compound having 10 or more and less than 20 is denoted as A) | B (a compound having 3 or more and less than 10 is denoted as B) |  | ratio of the KD value with respect to GDP-bound NRAS wild-type protein to the KD value with respect to KRAS ([1]; SPR, KD(NRAS)/KD(KRAS)): A (a compound having 10 or more and less than 20 is denoted as A); ratio of the KD value with respect to GDP-bound HRAS wild-type protein to the KD value with respect to KRAS ([2]; SPR, KD(HRAS)/KD(KRAS)): B (a compound having 3 or more and less than 10 is denoted as B); pIC50 ([3]; read-out: NCI-H441 cell proliferation inhibitory activity, 50% proliferation inhibitory concentration (IC50 value), NCI-H441, four days, CellTiter-Glo): 8.43
3 | CCCN1C(=O)CN(C)C(=O)[C@@H]2CCN2C(=O)[C@H]([C@@H](C)CC)NC(=O)[C@H](CC(C)C)N(C)C(=O)C[C@@H](C(=O)N2CCOCC2)NC(=O)[C@H](C2CCCC2)N(C)C(=O)C2(CCC2)NC(=O)[C@@H]2CCCN2C(=O)[C@H](CCc2ccc(C(F)(F)F)c(Cl)c2)NC(=O)CN(C)C(=O)[C@@H]1Cc1ccc(C(F)(F)F)cc1 [PP0338] ([NMeL]I[Aze][Sar][NPrPhe(4-CF3)][Sar][hPhe(3-Cl-4-CF3)]P[Ac4c][NMeGly(cPent)]D-Morpholide; lactam N-11) | B (a compound having 3 or more and less than 10 is denoted as B) | B (a compound having 3 or more and less than 10 is denoted as B) | 6.53 | 
4 | CCO[C@@H]1C[C@H]2C(=O)NC3(CCC3)C(=O)N(C)[C@@H](C3CCCC3)C(=O)N(C)[C@H](C(=O)N(CC)CC)CC(=O)N(C)[C@@H](CC(C)C)C(=O)N[C@@H]([C@@H](C)CC)C(=O)N(C)CC(=O)N(C)[C@H]3C/C=C\CCN(C3=O)[C@@H](Cc3ccc(C)cc3)C(=O)N(C)CC(=O)N[C@@H](CCc3ccc(C(F)(F)F)c(OC)c3)C(=O)N2C1 [PP1851] |  |  |  | NRAS/KRAS (KD ratio) ([1]; ratio of KD for GDP-bound NRAS wild-type protein to KD for KRAS, SPR): A (a compound having 10 or more and less than 20 is denoted as A); HRAS/KRAS (KD ratio) ([2]; ratio of KD for GDP-bound HRAS wild-type protein to KD for KRAS, SPR): A (a compound having 10 or more and less than 20 is denoted as A); pIC50 ([3]; read-out: NCI-H441 IC50, NCI-H441 cell proliferation, 4 days, CellTiter-Glo): 6.78
5 | CCCN1C(=O)CN(C)C(=O)[C@@H]2CCN2C(=O)[C@H]([C@@H](C)CC)NC(=O)[C@H](CC(C)C)N(C)C(=O)C[C@@H](C(=O)N2CCOCC2)N(C)C(=O)[C@H](C2CCCC2)N(C)C(=O)[C@](C)(CCC)NC(=O)[C@@H]2CCCN2C(=O)[C@H](CCc2cc(F)c(C(F)(F)F)c(F)c2)NC(=O)CN(C)C(=O)[C@@H]1Cc1ccc(C(F)(F)F)cc1 [PP0775] ([NMeL]I[Aze][Sar][NPrPhe(4-CF3)][Sar][hPhe(3,5-F2-4-CF3)]P[X11][NMeGly(cPent)][NMeD]-Morpholide; lactam N-11) |  |  | 6.38 | NRAS/KRAS (ratio of KD value with respect to NRAS to KD value with respect to KRAS) ([1]; SPR): B (a compound having 3 or more and less than 10 is denoted as B); HRAS/KRAS (ratio of KD value with respect to HRAS to KD value with respect to KRAS) ([2]; SPR): B (a compound having 3 or more and less than 10 is denoted as B)
6 | CCO[C@@H]1C[C@H]2C(=O)NC3(CCC3)C(=O)N(C)[C@@H](C3CCCC3)C(=O)N(C)[C@H](C(=O)N3CCOCC3)CC(=O)N(C)[C@@H](Cc3ccccc3)C(=O)N[C@@H]([C@@H](C)CC)C(=O)N(C)CC(=O)N(C)[C@H]3CCCCCN(C3=O)[C@@H](Cc3ccc(C(F)(F)F)cc3)C(=O)N(C)CC(=O)N[C@@H](CCc3cc(F)c(C(F)(F)F)c(F)c3)C(=O)N2C1 [PP0687] |  |  | 7.36 | NRAS/KRAS (ratio of KD value with respect to NRAS to KD value with respect to KRAS) ([1]; SPR): B (a compound having 3 or more and less than 10 is denoted as B); HRAS/KRAS (ratio of KD value with respect to HRAS to KD value with respect to KRAS) ([2]; SPR): B (a compound having 3 or more and less than 10 is denoted as B)
7 | CCC[C@H]1C(=O)N[C@@H]([C@@H](C)CC)C(=O)N(C)CC(=O)N(C)[C@H]2C/C=C\CCN(C2=O)[C@@H](Cc2ccc(C)cc2)C(=O)N(C)CC(=O)N[C@@H](CCc2ccc(C(F)(F)F)c(OC)c2)C(=O)N2C[C@H](OCC)C[C@H]2C(=O)NC2(CC(C)(C)C2)C(=O)N(C)[C@@H](CC(F)(F)F)C(=O)N(C)[C@H](C(=O)N(C)C)CC(=O)N1C [PP3007] | A (a compound having 10 or more and less than 20 is denoted as A) | A (a compound having 10 or more and less than 20 is denoted as A) | 7.20 | 
8 | CCCOC[C@H]1C(=O)N[C@@H]([C@@H](C)CC)C(=O)N(C)CC(=O)N(C)[C@H]2C/C=C\CCN(C2=O)[C@@H](Cc2ccc(C)cc2)C(=O)N(C)CC(=O)N[C@@H](CCc2ccc(C(F)(F)F)c(Cl)c2)C(=O)N2C[C@H](CC)C[C@H]2C(=O)NC2(CC(C)(C)C2)C(=O)N(C)[C@@H](C2CCCC2)C(=O)N(C)[C@H](C(=O)N(C)C)CC(=O)N1C [PP2235] | A (a compound having 10 or more and less than 20 is denoted as A) | A (a compound having 10 or more and less than 20 is denoted as A) | 7.66 | 
9 | CCCN1C(=O)CN(C)C(=O)[C@@H]2CCN2C(=O)[C@H]([C@@H](C)CC)NC(=O)[C@H](CC(C)C)N(C)C(=O)C[C@@H](C(=O)N2CCOCC2)N(C)C(=O)[C@H](C2CCCC2)N(C)C(=O)[C@](C)(C(C)C)NC(=O)[C@@H]2CCCN2C(=O)[C@H](CCc2cc(F)c(C(F)(F)F)c(F)c2)NC(=O)CN(C)C(=O)[C@@H]1Cc1ccc(C(F)(F)F)cc1 [PP0773] ([NMeL]I[Aze][Sar][NPrPhe(4-CF3)][Sar][hPhe(3,5-F2-4-CF3)]P[αMeV][NMeGly(cPent)][NMeD]-Morpholide; lactam N-11) |  |  | 6.77 | NRAS/KRAS (ratio of KD value with respect to NRAS to KD value with respect to KRAS) ([1]; SPR): B (a compound having 3 or more and less than 10 is denoted as B); HRAS/KRAS (ratio of KD value with respect to HRAS to KD value with respect to KRAS) ([2]; SPR): B (a compound having 3 or more and less than 10 is denoted as B)
10 | CCCN1C(=O)CN(C)C(=O)[C@@H]2CCN2C(=O)[C@H]([C@@H](C)CC)NC(=O)[C@H](CC(C)C)N(C)C(=O)C[C@@H](C(=O)N2CCOCC2)N(C)C(=O)[C@H](C2CCCC2)N(C)C(=O)C2(CCCC2)NC(=O)[C@@H]2CC3(CC3)CN2C(=O)[C@H](CCc2ccc(C(F)(F)F)c(Cl)c2)NC(=O)CN(C)C(=O)[C@@H]1Cc1ccc(C(F)(F)F)cc1 [PP0308] ([NMeL]I[Aze][Sar][NPrPhe(4-CF3)][Sar][hPhe(3-Cl-4-CF3)][Pro(4-spirocPr)][Ac5c][NMeGly(cPent)][NMeD]-Morpholide; lactam N-11) | B (a compound having 3 or more and less than 10 is denoted as B) | B (a compound having 3 or more and less than 10 is denoted as B) | 7.25 | 
11 | CCCN1C(=O)CN(C)C(=O)[C@@H]2[C@H](C)CN2C(=O)[C@H]([C@@H](C)CC)NC(=O)[C@H](CC(C)C)N(C)C(=O)C[C@@H](C(=O)N2CCOCC2)N(C)C(=O)[C@H](C2CCCC2)N(C)C(=O)C2(CCCC2)NC(=O)[C@@H]2CCCN2C(=O)[C@H](CCc2ccc(C(F)(F)F)c(Cl)c2)NC(=O)CN(C)C(=O)[C@@H]1Cc1ccc(C(F)(F)F)cc1 [PP0257] ([NMeL]I[X33][Sar][NPrPhe(4-CF3)][Sar][hPhe(3-Cl-4-CF3)]P[Ac5c][NMeGly(cPent)][NMeD]-Morpholide; lactam N-11) | B (a compound having 3 or more and less than 10 is denoted as B) | B (a compound having 3 or more and less than 10 is denoted as B) | 7.51 | 
12 | CCC[C@H]1C(=O)N[C@@H]([C@@H](C)CC)C(=O)N(C)CC(=O)N(C)[C@H]2C/C=C\CCN(C2=O)[C@@H](Cc2ccc(C(F)(F)F)cc2)C(=O)N(C)CC(=O)N[C@@H](CCc2cc(F)c(C(F)(F)F)c(F)c2)C(=O)N2C[C@H](OCC)C[C@H]2C(=O)NC2(CC(C)(C)C2)C(=O)N(C)[C@@H](CC(C)(C)C)C(=O)N(C)C(C(=O)N(C)C)CC(=O)N1C (some centres unmarked) [PP2730] |  |  | 8.24 | NRAS/KRAS (ratio of KD value with respect to GDP-bound NRAS wild-type protein to KD value with respect to KRAS) ([1]; SPR KD ratio NRAS/KRAS, class symbols): A (a compound having 10 or more and less than 20 is denoted as A); HRAS/KRAS (ratio of KD value with respect to GDP-bound HRAS wild-type protein to KD value with respect to KRAS) ([2]; SPR KD ratio HRAS/KRAS, class symbols): A (a compound having 10 or more and less than 20 is denoted as A)
13 | CCCN1C(=O)CN(C)C(=O)[C@@H]2CCN2C(=O)[C@H]([C@@H](C)CC)NC(=O)[C@H](CC(C)C)N(C)C(=O)C[C@@H](C(=O)N(C)C)NC(=O)[C@H](C2CCCC2)N(C)C(=O)C2(CCC2)NC(=O)[C@@H]2CC(F)(F)CN2C(=O)[C@H](CCc2ccc(C(F)(F)F)c(Cl)c2)NC(=O)CN(C)C(=O)[C@@H]1Cc1ccc(C(F)(F)F)cc1 [PP0376] ([NMeL]I[Aze][Sar][NPrPhe(4-CF3)][Sar][hPhe(3-Cl-4-CF3)][Pro(4,4-F2)][Ac4c][NMeGly(cPent)]D-NMe2; lactam N-11) | B (a compound having 3 or more and less than 10 is denoted as B) | B (a compound having 3 or more and less than 10 is denoted as B) | 6.94 | 

From patent US20240158446A1, “CYCLIC COMPOUND HAVING SELECTIVE INHIBITORY ACTION ON KRAS OVER HRAS AND NRAS” (CHUGAI SEIYAKU KABUSHIKI KAISHA, priority 2021, published 2024)
